# Assay results reported in patent US10316017B2, “COT modulators and methods of use thereof” (Gilead Sciences, Inc., priority 2015, dated 2019).
# pEC50, pIC50: −log10 of the molar value. Read-outs that look alike come from different tables or passages of the source.
# Columns and labels:
# [1] = test system: TNFα production in LPS-stimulated human monocytes; assay: Cot Monocyte TNFα Cell Based Assay; settings: Homo sapiens, Monocyte, TNFα in LPS-stimulated human monocytes; read-out: EC50 TNF
# Procedure, shortened: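 Percent-of-control values derive from TR-FRET ratios of TNFα in spun-down media, referenced to unstimulated and LPS-stimulated wells. Exposure: 1 h compound preincubation, then 50 pg/ml LPS for 4 h, both at 37 °C, with 0.5% final DMSO.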
# [2] = target: T1, human Cot catalytic domain (30-397 amino acids) (Homo sapiens, UniProt P41279); assay: High Throughput Cot Biochemical Assay (KinEASE TR-FRET); settings: read-out: IC50 HTRF
# T1 construct: Purified recombinant human Cot catalytic domain (30-397 amino acids) was purchased from Cama Biosciences; purchased Cama Biosciences (so in the source)
# T1 sequence (P41279 30-397): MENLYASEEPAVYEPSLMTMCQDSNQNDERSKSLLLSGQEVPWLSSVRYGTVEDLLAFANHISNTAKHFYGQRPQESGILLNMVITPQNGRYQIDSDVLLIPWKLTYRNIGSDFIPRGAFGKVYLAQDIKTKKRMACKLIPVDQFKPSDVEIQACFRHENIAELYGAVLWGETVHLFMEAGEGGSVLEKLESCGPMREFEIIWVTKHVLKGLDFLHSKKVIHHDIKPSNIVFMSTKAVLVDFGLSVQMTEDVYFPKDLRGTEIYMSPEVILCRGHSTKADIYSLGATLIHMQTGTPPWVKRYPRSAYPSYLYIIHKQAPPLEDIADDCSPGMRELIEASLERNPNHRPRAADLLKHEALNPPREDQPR
# Procedure, shortened: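 Phosphorylation of 1 μM XL665-STK3 peptide by 5 nM Cot catalytic domain was measured by time-resolved FRET using a europium […] antibody. ATP was 400 μM; buffer was 10 mM MOPS pH 7.0 with Mg2+ and DTT.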
# [3] = Cot KinEASE TR-FRET (HTRF) biochemical assay, 400 μM ATP
# [4] = Cot biochemical HTRF (KinEASE TR-FRET) assay
Structure (SMILES),pEC50 [1],"pIC50 [2, 3]","pIC50 [2, 4]"
"N#Cc1cnc2c(Cl)cc(N[C@@H](c3ccc(F)cc3)c3cn(-c4ccncc4)nn3)cc2c1Nc1cnc(F)c(F)c1 [Example 388, (S)-8-chloro-4-((5,6-difluoropyridin-3-yl)amino)-6-(((4-fluorophenyl)(1-(pyridin-4-yl)-1H-1,2,3-triazol-4-yl)methyl)amino)quinoline-3-carbonitrile]",5.90,7.08,
"N#Cc1cnc2c(Cl)cc(N[C@@H](c3ccc(F)cc3)c3cn(-c4cccnc4)nn3)cc2c1Nc1cnc(F)c(F)c1 [Example 389, (S)-8-chloro-4-((5,6-difluoropyridin-3-yl)amino)-6-(((4-fluorophenyl) (1-(pyridin-3-yl)-1H-1,2,3-triazol-4-yl)methyl)amino)quinoline-3-carbonitrile]",6.09,7.43,
"CC[C@@H](Nc1c(C#N)cnc2c(Cl)cc(N[C@@H](c3ccc(F)cc3)c3cn(-c4ccncc4)nn3)cc12)c1ccccc1 [Example 390, 8-chloro-6-(((S)-(4-fluorophenyl)(1-(pyridin-4-yl)-1H-1,2,3-triazol-4-yl)methyl)amino)-4-(((R)-1-phenylpropyl)amino)quinoline-3-carbonitrile]",6.50,7.52,
"CC[C@@H](Nc1c(C#N)cnc2c(Cl)cc(N[C@@H](c3ccc(F)cc3)c3cn(-c4cccnc4)nn3)cc12)c1ccccc1 [Example 391, 8-chloro-6-(((S)-(4-fluorophenyl)(1-(pyridin-3-yl)-1H-1,2,3-triazol-4-yl)methyl)amino)-4-(((R)-1-phenylpropyl)amino)quinoline-3-carbonitrile]",6.67,7.77,
"CC(C)(C)CNc1c(C#N)cnc2c(Cl)cc(N[C@@H](c3ccc(F)cc3)c3cn(-c4ccncc4)nn3)cc12 [Example 393, (S)-8-chloro-6-(((4-fluorophenyl)(1-(pyridin-4-yl)-1H-1,2,3-triazol-4-yl)methyl)amino)-4-(neopentylamino)quinoline-3-carbonitrile]",6.48,6.75,
"CC(C)(C)CNc1c(C#N)cnc2c(Cl)cc(N[C@@H](c3ccc(F)cc3)c3cn(-c4cccnc4)nn3)cc12 [Example 394, (S)-8-chloro-6-(((4-fluorophenyl)(1-(pyridin-3-yl)-1H-1,2,3-triazol-4-yl)methyl)amino)-4-(neopentylamino)quinoline-3-carbonitrile]",6.80,7.44,
"CC(C)(C)CNc1c(C#N)cnc2c(Cl)cc(N[C@@H](c3ccc(F)cc3)c3cn(-c4ccccc4)nn3)cc12 [Example 395, (S)-8-chloro-6-(((4-fluorophenyl)(1-phenyl-1H-1,2,3-triazol-4-yl)methyl)amino)-4-(neopentylamino)quinoline-3-carbonitrile]",6.56,7.33,
"CCC(Nc1c(C#N)cnc2c(Cl)cc(N[C@@H](c3ccc(F)cc3)c3c[nH]nn3)cc12)c1ccccc1F (stereo partly drawn) [Example 397, 8-chloro-6-(((S)-(4-fluorophenyl)(1H-1,2,3-triazol-4-yl)methyl)amino)-4-((1-(2-fluorophenyl)propyl)amino) quinoline-3-carbonitrile]",6.14,6.90,
"CC1(CNc2c(C#N)cnc3c(Cl)cc(N[C@@H](c4ccc(F)cc4)c4c[nH]nn4)cc23)CCOCC1 [Example 398, (S)-8-chloro-6-(((4-fluorophenyl)(1H-1,2,3-triazol-4-yl)methyl)amino)-4-(((4-methyltetrahydro-2H-pyran-4-yl)methyl)amino)quinoline-3-carbonitrile]",5.98,7.55,
"CC(C)C(C)(C)CNc1c(C#N)cnc2c(Cl)cc(N[C@@H](c3ccc(F)cc3)c3c[nH]nn3)cc12 [Example 399, (S)-8-chloro-6-(((4-fluorophenyl)(1H-1,2,3-triazol-4-yl)methyl)amino)-4-((2,2,3-trimethylbutyl)amino) quinoline-3-carbonitrile]",6.05,7.42,
"CC(C)(C)CNc1c(C#N)cnc2c(Cl)cc(N[C@@H](c3ccc(F)cc3)c3c[nH]nn3)cc12 [Example 400, (S)-8-chloro-6-(((4-fluorophenyl)(1H-1,2,3-triazol-4-yl)methyl)amino)-4-(neopentylamino) quinoline-3-carbonitrile]",5.91,7.33,
"N#Cc1cnc2c(Cl)cc(N[C@@H](c3ccc(F)cc3)c3c[nH]nn3)cc2c1NCc1cscn1 [Example 401, (S)-8-chloro-6-(((4-fluorophenyl)(1H-1,2,3-triazol-4-yl)methyl)amino)-4-((thiazol-4-ylmethyl)amino)quinoline-3-carbonitrile]",5.32,6.12,
"N#Cc1cnc2c(Cl)cc(N[C@@H](c3ccc(F)cc3)c3c[nH]nn3)cc2c1NCc1nccs1 [Example 402, (S)-8-chloro-6-(((4-fluorophenyl)(1H-1,2,3-triazol-4-yl)methyl)amino)-4-((thiazol-2-ylmethyl)amino)quinoline-3-carbonitrile]",5.44,6.45,
"CC1(n2cc([C@@H](Nc3cc(Cl)c4ncc(C#N)c(Nc5cnc(F)c(F)c5)c4c3)c3ccc(F)cc3)nn2)COC1 [Example 403, (S)-8-chloro-4-((5,6-difluoropyridin-3-yl)amino)-6-(((4-fluorophenyl) (1-(3-methyloxetan-3-yl)-1H-1,2,3-triazol-4-yl)methyl)amino)quinoline-3-carbonitrile]",6.27,7.82,
"N#Cc1cnc2c(Cl)cc(N[C@H](c3c[nH]nn3)c3ccccc3C(F)F)cc2c1Nc1cnc(F)c(F)c1 [Example 404, (S)-8-chloro-6-(((2-(difluoromethyl)phenyl) (1H-1,2,3-triazol-4-yl)methyl)amino)-4-((5,6-difluoropyridin-3-yl)amino)quinoline-3-carbonitrile]",6.24,,7.47
"N#Cc1cnc2c(Cl)cc(N[C@@H](c3ccc(F)cc3)c3cn(CC4(F)COC4)nn3)cc2c1Nc1cnc(F)c(F)c1 [Example 405, (S)-8-chloro-4-((5,6-difluoropyridin-3-yl)amino)-6-(((1-((3-fluorooxetan-3-yl)methyl)-1H-1,2,3-triazol-4-yl)(4-fluorophenyl)methyl)amino) quinoline-3-carbonitrile]",5.64,,7.16
"C[C@@H](n1cc([C@@H](Nc2cc(Cl)c3ncc(C#N)c(Nc4cnc(F)c(F)c4)c3c2)c2ccc(F)cc2)nn1)C(F)(F)F [Example 406, 8-chloro-4-((5,6-difluoropyridin-3-yl)amino)-6-(((S)-(4-fluorophenyl)(1-((R)-1,1,1-trifluoropropan-2-yl)-1H-1,2,3-triazol-4-yl)methyl)amino)quinoline-3-carbonitrile]",5.35,,6.67
"CC(C(F)F)n1cc([C@@H](Nc2cc(Cl)c3ncc(C#N)c(Nc4cnc(F)c(F)c4)c3c2)c2ccc(F)cc2)nn1 (stereo partly drawn) [Example 407, 8-chloro-6-(((1S)-(1-(1,1-difluoropropan-2-yl)-1H-1,2,3-triazol-4-yl)(4-fluorophenyl)methyl)amino)-4-((5,6-difluoropyridin-3-yl)amino)quinoline-3-carbonitrile]",5.82,,7.33
"N#Cc1cnc2c(Cl)cc(N[C@@H](c3ccc(F)cc3)c3cn(-c4ccccc4)nn3)cc2c1Nc1cnc(F)c(F)c1 [Example 408, (S)-8-chloro-4-((5,6-difluoropyridin-3-yl)amino)-6-(((4-fluorophenyl) (1-phenyl-1H-1,2,3-triazol-4-yl)methyl)amino)quinoline-3-carbonitrile]",6.11,,7.39
"N#Cc1cnc2c(Cl)cc(N[C@@H](c3ccc(F)cc3)c3cn(CC(F)F)nn3)cc2c1Nc1cnc(F)c(F)c1 [Example 409, (S)-8-chloro-6-(((1-(2,2-difluoroethyl)-1H-1,2,3-triazol-4-yl)(4-fluorophenyl)methyl)amino)-4-((5,6-difluoropyridin-3-yl)amino)quinoline-3-carbonitrile]",6.11,,7.64
"N#CCn1cc([C@@H](Nc2cc(Cl)c3ncc(C#N)c(Nc4cnc(F)c(F)c4)c3c2)c2ccc(F)cc2)nn1 [Example 410, (S)-8-chloro-6-(((1-(cyanomethyl)-1H-1,2,3-triazol-4-yl)(4-fluorophenyl)methyl)amino)-4-((5,6-difluoropyridin-3-yl)amino)quinoline-3-carbonitrile]",6.14,,7.52
"CC(C)(C)Cn1cc([C@@H](Nc2cc(Cl)c3ncc(C#N)c(Nc4cnc(F)c(F)c4)c3c2)c2ccc(F)cc2)nn1 [Example 411, (S)-8-chloro-4-((5,6-difluoropyridin-3-yl)amino)-6-(((4-fluorophenyl)(1-neopentyl-1H-1,2,3-triazol-4-yl)methyl)amino)quinoline-3-carbonitrile]",5.47,,6.95
"CC1(Cn2cc([C@@H](Nc3cc(Cl)c4ncc(C#N)c(Nc5cnc(F)c(F)c5)c4c3)c3ccc(F)cc3)nn2)CC1 [Example 412, (S)-8-chloro-4-((5,6-difluoropyridin-3-yl)amino)-6-(((4-fluorophenyl)(1-((1-methylcyclopropyl)methyl)-1H-1,2,3-triazol-4-yl)methyl)amino)quinoline-3-carbonitrile]",5.65,,7.30
CC1(Cn2cc([C@@H](Nc3cc(Cl)c4ncc(C#N)c(Nc5cnc(F)c(F)c5)c4c3)c3ccc(F)cc3)nn2)CCC1 [Example 413],5.56,,7.03
